Several values for one entry are separate records, joined by “and”; a condition that tells them apart may be missing. Equal entries are not always repeated.
System: patients with prior myocardial infarction (CARE study)
Test: CARE aligned analysis (prospective and case/control design, white males): association of genotypes with pravastatin efficacy (Tables 13, 15)
Assay type: in vivo, human
Conditions: for Pravastatin vs placebo odds ratio, 1 rare allele / Pravastatin vs placebo odds ratio, 2 rare alleles / 2 rare alleles n/total (%), pravastatin patients / Pravastatin vs placebo odds ratio, 0 rare alleles: CARE, F MI/SD/NF MI; for Pravastatin Patients (%) / Pravastatin Patients n/total: F&NF MI, WM
Experimental: The data presented in Table 8 based on an association of genotypes with pravastatin efficacy of the CARE samples were further analyzed and presented in Table 13. The further analysis was performed to align the data obtained from the analysis of the CARE samples, which was a prospective study, to the analysis of the WOSCOP samples, which was a case/control study. Table 13 also presents an analysis of the association of genotypes with pravastatin efficacy in the WOSCOPs samples. Relative to the analysis performed on the data presented in Table 8, there are two significant differences to determine if the SNP influenced pravastatin efficacy. Data obtained from the CARE samples were separated by study design into two groups, those in the prospective study design group and those in the case/control study design group. The original care study contained 16 protocol defined cardiovascular disease defined endpoints and 150 other phenotypes. […] The control groups used to compare the data were also divided into two groups, the “all possible” control group and the “cleaner” control group. […] Because the participants in the WOSCOPs trial were all white males, only data obtained from white males in the CARE study were analysed. Data from the “all possible” and “cleaner” controls were compared to data obtained from the cases in the prospective study design while only data from “cleaner” controls were compared to cases in the case/control study design. The data from the case/control cohorts were analysed using conditional logistic regression (as opposed to logistic regression used for the original anaylsis).
The anaylsis was refined as described for both Tables 13 and 14.

[1] = IL9 hCV3275199, 0 Rare Alleles, CARE Case/Control, All Possible controls
[2] = IL9 hCV3275199, 0 Rare Alleles, CARE Case/Control, Cleaner controls
[3] = IL9 hCV3275199, 0 Rare Alleles, CARE Prospective, All Possible controls
[4] = IL9 hCV3275199, 0 Rare Alleles, CARE Prospective, Cleaner controls
[5] = IL9 hCV3275199, 1 Rare Allele, CARE Case/Control, All Possible controls
[6] = IL9 hCV3275199, 1 Rare Allele, CARE Case/Control, Cleaner controls
[7] = IL9 hCV3275199, 1 Rare Allele, CARE Prospective, All Possible controls
[8] = IL9 hCV3275199, 1 Rare Allele, CARE Prospective, Cleaner controls
[9] = ITGA4 hCV7618856, 0 Rare Alleles, CARE Case/Control, Cleaner controls
[10] = ITGA4 hCV7618856, 1 Rare Allele, CARE Case/Control, All Possible controls
[11] = ITGA4 hCV7618856, 1 Rare Allele, CARE Case/Control, Cleaner controls
[12] = ITGA4 hCV7618856, 1 Rare Allele, CARE Prospective, All Possible controls
[13] = KDR hCV16192174, 0 Rare Alleles, CARE Case/Control, All Possible controls
[14] = KDR hCV16192174, 0 Rare Alleles, CARE Case/Control, Cleaner controls
[15] = KDR hCV16192174, 0 Rare Alleles, CARE Prospective, All Possible controls
[16] = KDR hCV16192174, 0 Rare Alleles, CARE Prospective, Cleaner controls
[17] = KDR hCV16192174, 1 Rare Allele, CARE Case/Control, All Possible controls
[18] = KDR hCV16192174, 1 Rare Allele, CARE Case/Control, Cleaner controls
[19] = KDR hCV16192174, 1 Rare Allele, CARE Prospective, All Possible controls
[20] = KDR hCV16192174, 1 Rare Allele, CARE Prospective, Cleaner controls
[21] = KDR hCV22271999, 0 Rare Alleles, CARE Case/Control, All Possible controls
[22] = KDR hCV22271999, 0 Rare Alleles, CARE Case/Control, Cleaner controls
[23] = KDR hCV22271999, 0 Rare Alleles, CARE Prospective, All Possible controls
[24] = KDR hCV22271999, 0 Rare Alleles, CARE Prospective, Cleaner controls
[25] = KDR hCV22271999, 1 Rare Allele, CARE Case/Control, All Possible controls
[26] = KDR hCV22271999, 1 Rare Allele, CARE Case/Control, Cleaner controls
[27] = KDR hCV22271999, 1 Rare Allele, CARE Prospective, All Possible controls
[28] = KDR hCV22271999, 1 Rare Allele, CARE Prospective, Cleaner controls

In the case of `CC[C@H](C)C(=O)O[C@H]1C[C@H](O)C=C2C=C[C@H](C)[C@H](CC[C@@H](O)C[C@@H](O)CC(=O)O)[C@H]21` [pravastatin], the “Pravastatin vs placebo odds ratio, 1 rare allele” value (IL4R hCV2769554, Case/Control) is reported as 0.74 and 0.64, the “Pravastatin vs placebo odds ratio, 2 rare alleles” value (IL4R hCV2769554, Case/Control) is reported as 1.66 and 1.52 and the “Pravastatin Patients (%)” value [1] is reported as “(12.4%)”. For the same compound, the “Pravastatin Patients n/total” value [1] was 111/896, the “Pravastatin Patients (%)” value [2] was “(17.5%)” and the “Pravastatin Patients n/total” value [2] was 111/633. For the same compound, the “Pravastatin Patients (%)” value [3] was “(12.2%)”, the “Pravastatin Patients n/total” value [3] was 111/911 and the “Pravastatin Patients (%)” value [4] was “(17.2%)”. The “Pravastatin Patients n/total” value [4] was 111/644, the “Pravastatin Patients (%)” value [5] was “(5.3%)” and the “Pravastatin Patients n/total” value [5] was 15/283. The “Pravastatin Patients (%)” value [6] was “(8.2%)”, the “Pravastatin Patients n/total” value [6] was 15/184 and the “Pravastatin Patients (%)” value [7] was “(5.2%)”. For the same compound, the “Pravastatin Patients n/total” value [7] was 15/290, the “Pravastatin Patients (%)” value [8] was “(8.0%)” and the “Pravastatin Patients n/total” value [8] was 15/187. For the same compound, the “Pravastatin Patients (%)” value (ITGA4 hCV7618856, 0 Rare Alleles, CARE Case/Control, All Possible controls) was “(10.1%)”, the “Pravastatin Patients (%)” value [9] was “(14.7%)” and the “Pravastatin Patients n/total” value [9] was 120/817. For the same compound, the “Pravastatin Patients (%)” value (ITGA4 hCV7618856, 0 Rare Alleles, CARE Prospective, All Possible controls) was “(10.0%)”, the “Pravastatin Patients (%)” value [10] was “(25.0%)” and the “Pravastatin Patients n/total” value [10] was 5/20. The “Pravastatin Patients (%)” value [11] was “(31.3%)”, the “Pravastatin Patients n/total” value [11] was 5/16 and the “Pravastatin Patients (%)” value [12] was “(23.8%)”. For the same compound, the “Pravastatin Patients n/total” value [12] was 5/21, the “2 rare alleles n/total (%), pravastatin patients” value (ITGAE hCV1243283, Case/Control) was “(8.0%)” and the “Pravastatin vs placebo odds ratio, 0 rare alleles” value (ITGAE hCV1243283, Case/Control) was 0.79. The “Pravastatin vs placebo odds ratio, 1 rare allele” value (ITGAE hCV1243283, Case/Control) was 0.84, the “Pravastatin vs placebo odds ratio, 2 rare alleles” value (ITGAE hCV1243283, Case/Control) was 0.24 and the “Pravastatin Patients (%)” value [13] was “(9.0%)”. For the same compound, the “Pravastatin Patients n/total” value [13] was 87/971, the “Pravastatin Patients (%)” value [14] was “(13.1%)” and the “Pravastatin Patients n/total” value [14] was 87/666. For the same compound, the “Pravastatin Patients (%)” value [15] was “(8.8%)”, the “Pravastatin Patients n/total” value [15] was 87/985 and the “Pravastatin Patients (%)” value [16] was “(12.9%)”. The “Pravastatin Patients n/total” value [16] was 87/675, the “Pravastatin Patients (%)” value [17] was “(17.2%)” and the “Pravastatin Patients n/total” value [17] was 39/227. For the same compound, the “Pravastatin Patients (%)” value [18] was “(23.9%)”, the “Pravastatin Patients n/total” value [18] was 39/163 and the “Pravastatin Patients (%)” value [19] was “(16.6%)”. The “Pravastatin Patients n/total” value [19] was 39/235, the “Pravastatin Patients (%)” value [20] was “(23.2%)” and the “Pravastatin Patients n/total” value [20] was 39/168. The “Pravastatin vs placebo odds ratio, 0 rare alleles” value (KDR hCV16192174, Case/Control) was 0.66 and 0.58, the “Pravastatin vs placebo odds ratio, 1 rare allele” value (KDR hCV16192174, Case/Control) was 1.68 and the “Pravastatin vs placebo odds ratio, 2 rare alleles” value (KDR hCV16192174, Case/Control) was 0.41 and 0.35. The “2 rare alleles n/total (%), pravastatin patients” value (KDR hCV16192174, Prospective) was “(10.0%)”, the “Pravastatin vs placebo odds ratio, 0 rare alleles” value (KDR hCV16192174, Prospective) was 0.61 and the “Pravastatin vs placebo odds ratio, 1 rare allele” value (KDR hCV16192174, Prospective) was 1.41. The “Pravastatin vs placebo odds ratio, 2 rare alleles” value (KDR hCV16192174, Prospective) was 0.30, the “Pravastatin Patients (%)” value [21] was “(9.0%)” and the “Pravastatin Patients n/total” value [21] was 87/969. For the same compound, the “Pravastatin Patients (%)” value [22] was “(13.1%)”, the “Pravastatin Patients n/total” value [22] was 87/665 and the “Pravastatin Patients (%)” value [23] was “(8.9%)”. For the same compound, the “Pravastatin Patients n/total” value [23] was 87/983, the “Pravastatin Patients (%)” value [24] was “(12.9%)” and the “Pravastatin Patients n/total” value [24] was 87/674. The “Pravastatin Patients (%)” value [25] was “(17.3%)”, the “Pravastatin Patients n/total” value [25] was 39/226 and the “Pravastatin Patients (%)” value [26] was “(24.1%)”. For the same compound, the “Pravastatin Patients n/total” value [26] was 39/162, the “Pravastatin Patients (%)” value [27] was “(16.7%)” and the “Pravastatin Patients n/total” value [27] was 39/234. For the same compound, the “Pravastatin Patients (%)” value [28] was “(23.4%)” and the “Pravastatin Patients n/total” value [28] was 39/167.
